Measurements taken from publication doi:10.1101/2024.01.16.575974v2, “Structural insights into peptidoglycan hydrolysis by the FtsEX system in Escherichia coli during cell division” (biorxiv, 2025).
Where a chain is given by its changes, count along the chain named.

How the values were obtained:
EcoFtsEX [1] = biological target: T1, EcoFtsEX (Escherichia coli, UniProt P0A9R7); test: complex stabilisation against precipitation (SDS-PAGE); format: binding; settings: 2 mM nucleotide, pH 8.0
T1 construct: gene ftsE; full-length, His6-tagged (pTD68 his6-FtsEX), expressed in E. coli BL21(DE3) pLysS, DDM-solubilised, in peptidiscs; two FtsE and two FtsX; with Cell division protein FtsX
T1 sequence (P0A9R7 1-222): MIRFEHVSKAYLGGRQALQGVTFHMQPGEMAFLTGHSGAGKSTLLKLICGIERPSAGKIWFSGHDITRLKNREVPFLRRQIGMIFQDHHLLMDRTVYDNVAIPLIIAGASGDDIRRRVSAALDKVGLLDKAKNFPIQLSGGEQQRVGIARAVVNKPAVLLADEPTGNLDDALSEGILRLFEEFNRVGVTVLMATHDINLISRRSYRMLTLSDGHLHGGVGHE
T1 sequence (P0AC30 1-352 partner): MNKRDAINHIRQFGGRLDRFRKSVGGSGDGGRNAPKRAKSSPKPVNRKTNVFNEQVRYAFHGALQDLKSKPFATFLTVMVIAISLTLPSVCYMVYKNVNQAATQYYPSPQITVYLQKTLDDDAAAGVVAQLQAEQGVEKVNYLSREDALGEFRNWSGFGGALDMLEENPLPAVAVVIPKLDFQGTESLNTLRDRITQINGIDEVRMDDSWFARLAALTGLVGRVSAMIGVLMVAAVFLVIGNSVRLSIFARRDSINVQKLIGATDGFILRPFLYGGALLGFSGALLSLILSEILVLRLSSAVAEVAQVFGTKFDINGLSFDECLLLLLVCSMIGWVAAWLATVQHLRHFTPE

EcoFtsEX [2] = biological target: T1, EcoFtsEX; test: cryo-EM structure, […] Å; format: binding; settings: 3 mM ATPγS, 2 mM Mg2+, peptidiscs; two bound nucleotides at FtsE
PaeFtsEX = biological target: T2, PaeFtsEX (Pseudomonas aeruginosa, UniProt Q9I6C0); test: complex stabilisation (SEC yield, FtsE:FtsX stoichiometry on SDS-PAGE); settings: 2 mM ATP, pH 8.0; indirect evidence of binding
T2 construct: gene ftsE; His6-FtsEX (pTD68) expressed in E. coli BL21(DE3) pLysS, DDM-solubilised, peptidiscs, SEC; with Cell division protein FtsX
T2 sequence (Q9I6C0 1-223): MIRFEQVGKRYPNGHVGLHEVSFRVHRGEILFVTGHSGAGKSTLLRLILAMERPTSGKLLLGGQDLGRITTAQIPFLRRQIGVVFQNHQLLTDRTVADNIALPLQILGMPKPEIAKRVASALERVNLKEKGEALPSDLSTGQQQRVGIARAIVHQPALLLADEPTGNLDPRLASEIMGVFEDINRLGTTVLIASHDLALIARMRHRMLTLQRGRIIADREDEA
T2 sequence (Q9I6B9 1-335 partner): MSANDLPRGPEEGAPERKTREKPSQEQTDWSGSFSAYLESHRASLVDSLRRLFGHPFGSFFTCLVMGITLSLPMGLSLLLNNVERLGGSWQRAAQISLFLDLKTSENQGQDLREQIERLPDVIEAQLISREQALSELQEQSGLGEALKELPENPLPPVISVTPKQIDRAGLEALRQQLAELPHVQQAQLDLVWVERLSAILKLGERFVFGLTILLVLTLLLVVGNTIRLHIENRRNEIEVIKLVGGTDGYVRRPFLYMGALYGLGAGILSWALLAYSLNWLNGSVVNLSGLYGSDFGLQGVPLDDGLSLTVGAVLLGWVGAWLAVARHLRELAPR

BsFtsEX = biological target: T3, BsFtsEX (Bacillus subtilis, UniProt O34814); test: as above; settings: 2 mM ATP, pH 8.0; indirect evidence of binding
T3 construct: gene ftsE; His6-FtsEX (pTD68) expressed in E. coli BL21(DE3) pLysS, DDM-solubilised, peptidiscs, SEC; with Cell division protein FtsX
T3 sequence (O34814 1-228): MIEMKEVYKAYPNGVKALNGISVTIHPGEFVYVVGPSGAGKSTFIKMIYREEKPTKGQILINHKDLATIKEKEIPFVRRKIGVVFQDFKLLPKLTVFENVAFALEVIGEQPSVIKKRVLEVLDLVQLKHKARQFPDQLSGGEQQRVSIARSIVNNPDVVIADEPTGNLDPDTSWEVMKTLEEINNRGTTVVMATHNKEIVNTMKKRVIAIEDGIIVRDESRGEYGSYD
T3 sequence (O34876 1-296 partner): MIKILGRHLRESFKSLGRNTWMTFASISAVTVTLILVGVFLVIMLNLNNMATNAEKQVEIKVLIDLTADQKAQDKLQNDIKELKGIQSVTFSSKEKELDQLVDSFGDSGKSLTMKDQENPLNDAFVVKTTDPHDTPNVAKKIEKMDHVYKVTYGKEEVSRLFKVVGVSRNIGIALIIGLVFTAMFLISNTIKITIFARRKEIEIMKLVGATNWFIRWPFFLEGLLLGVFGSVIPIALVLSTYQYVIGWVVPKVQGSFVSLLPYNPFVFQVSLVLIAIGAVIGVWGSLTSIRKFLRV

SpFtsEX = biological target: T4, SpFtsEX (Streptococcus pneumoniae, UniProt A0A0H2ZM82); test: as above; settings: 2 mM ATP, pH 8.0; indirect evidence of binding
T4 construct: gene ftsE; His6-FtsEX (pTD68) expressed in E. coli BL21(DE3) pLysS, DDM-solubilised, peptidiscs, SEC; with Cell division protein FtsX
T4 sequence (A0A0H2ZM82 1-230): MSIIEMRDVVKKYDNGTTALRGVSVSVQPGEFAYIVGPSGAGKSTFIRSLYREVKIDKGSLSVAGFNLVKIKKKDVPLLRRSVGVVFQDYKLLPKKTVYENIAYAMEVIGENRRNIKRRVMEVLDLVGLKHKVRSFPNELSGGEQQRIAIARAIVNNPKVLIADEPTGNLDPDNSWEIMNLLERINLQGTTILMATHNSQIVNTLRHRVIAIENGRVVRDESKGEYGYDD
T4 sequence (Q04LE4 1-308 partner): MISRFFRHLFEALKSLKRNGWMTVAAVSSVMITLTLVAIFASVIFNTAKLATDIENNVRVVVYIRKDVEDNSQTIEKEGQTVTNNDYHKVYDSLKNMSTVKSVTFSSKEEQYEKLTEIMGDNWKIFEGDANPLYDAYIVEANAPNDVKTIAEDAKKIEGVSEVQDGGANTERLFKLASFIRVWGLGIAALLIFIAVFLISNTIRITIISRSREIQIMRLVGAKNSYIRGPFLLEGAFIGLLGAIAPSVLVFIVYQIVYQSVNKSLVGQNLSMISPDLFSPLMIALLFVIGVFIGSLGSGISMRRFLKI

EcoFtsEX/EnvC = biological target: T5, EcoFtsEX/EnvC (Escherichia coli, UniProt P0A9R7, E163Q); test: cryo-EM structure, […] Å; format: binding; settings: 2 mM ATP-Mg2+, peptidiscs; hydrolysis-deficient mutant, two bound nucleotides at FtsE
T5 construct: gene ftsE; full-length His6-FtsEX in peptidiscs plus EnvC delta34 (signal region removed, His6-SUMO tag cut), both expressed in E. coli BL21(DE3) pLysS; with Cell division protein FtsX
T5 sequence (P0A9R7 1-222 E163Q): T1 sequence (P0A9R7 1-222) with E163Q
T5 sequence (P0AC30 1-352 partner): T1 sequence (P0AC30 1-352 partner)
T5 sequence (P37690 35-419 partner): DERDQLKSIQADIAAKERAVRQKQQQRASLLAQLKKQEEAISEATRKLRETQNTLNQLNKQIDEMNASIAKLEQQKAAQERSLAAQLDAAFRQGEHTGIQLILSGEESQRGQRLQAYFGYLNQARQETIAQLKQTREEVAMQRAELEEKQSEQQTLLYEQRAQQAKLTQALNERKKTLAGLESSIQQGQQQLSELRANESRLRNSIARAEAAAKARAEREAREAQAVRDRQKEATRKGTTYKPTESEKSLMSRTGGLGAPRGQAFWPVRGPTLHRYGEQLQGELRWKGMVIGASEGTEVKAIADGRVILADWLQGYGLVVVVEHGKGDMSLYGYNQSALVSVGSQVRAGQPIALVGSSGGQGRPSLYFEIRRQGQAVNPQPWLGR

## Nc1ncnc2c1ncn2[C@@H]1O[C@H](COP(=O)(O)OP(=O)(O)O)[C@@H](O)[C@H]1O [ADP]
EcoFtsEX [1]
  complex stabilisation against precipitation (SDS-PAGE): ATP analogues, including ATPγS, AMP-PNP, and ADP, also exhibited similar stabilizing effects

## Nc1ncnc2c1ncn2[C@@H]1O[C@H](COP(=O)(O)OP(=O)(O)OP(O)(O)=S)[C@@H](O)[C@H]1O [ATPγS]
EcoFtsEX [2]
  cryo-EM structure, 3.7 Å: 8W6I (ATPγS bound FtsEX)

## Nc1ncnc2c1ncn2[C@@H]1O[C@H](COP(=O)(O)OP(=O)(O)OP(=O)(O)O)[C@@H](O)[C@H]1O [ATP]
PaeFtsEX
  complex stabilisation (SEC yield, FtsE:FtsX stoichiometry on SDS-PAGE): regardless of the bacterial species, ATP consistently enhanced the stability of the complexes
BsFtsEX
  complex stabilisation (SEC yield, FtsE:FtsX stoichiometry on SDS-PAGE): regardless of the bacterial species, ATP consistently enhanced the stability of the complexes
SpFtsEX
  complex stabilisation (SEC yield, FtsE:FtsX stoichiometry on SDS-PAGE): regardless of the bacterial species, ATP consistently enhanced the stability of the complexes
EcoFtsEX/EnvC
  cryo-EM structure, 3.4 Å: 8W6J (ATP-bound FtsE^E163QX/EnvC)

## Nc1ncnc2c1ncn2[C@@H]1O[C@H](COP(=O)(O)OP(=O)(O)NP(=O)(O)O)[C@@H](O)[C@H]1O [AMP-PNP]
EcoFtsEX [1]
  complex stabilisation against precipitation (SDS-PAGE): ATP analogues, including ATPγS, AMP-PNP, and ADP, also exhibited similar stabilizing effects
